Measurements published in patent US20240139226A1, “A COMPOSITION FOR PROMOTING GLP-1 SECRETION” (priority 2021, published 2024).
Like-named read-outs stand apart in the source and are kept apart here.

System: NCI-H716 cells
Assay: GLP-1 secretion-promoting effect using NCI-H716 cells (GLP-1 in supernatant by ELISA)
Assay type: cell-based, Human
Conditions: for GLP-1 secretion compared to Control: Experiment 1-3, text on Table 1, mGN 2.5 mM, flavor component 0.25 mM; for activity at 125 µM: test sample alone at 0.125 mM; for activity at 25 µM: test sample alone at 0.025 mM; for activity at 2500 µM: test sample alone at 2.5 mM; for activity at 25000 µM: test sample alone at 25 mM
Protocol: GLP-1 secretion-promoting effect was evaluated by the following experiment using NCI-H716 cells (Human intestinal tract-derived cell line; purchased from ATCC).
NCI-H716 cells were cultured at 37° C. with 5% CO2 using RPMI1640 (supplemented with 10% Fetal Bovine Serum, manufactured by Sigma) as a cell culture medium for passage. After culturing, cells were suspended in DMEM medium (supplemented with 10% Fetal Bovine Serum; containing 4.5 mg/mL of glucose; manufactured by Shimadzu Diagnostics Corporation, Tokyo, Japan) and added to a Matrigel (120 μL/well; manufactured by Corning Incorporated, NY, USA)-coated 48-well plate at a cell density of 1.2×10^5 cells/well. After incubation for 2 days, the cells were washed twice with 20 mM HEPES-containing HBSS (Hank's Balanced Salt Solution) buffer. After removal of the washing buffer, 20 mM HEPES-HBSS (supplemented with 0.01% BSA) containing the above-described test samples was added and the cells were incubated for 2 hours. After incubation, the supernatant was collected into a microcentrifuge tube containing diprotin-A (DPP4 inhibitor, manufactured by Abcam plc., Cambridge, UK) and protease inhibitors (cOmplete™, EDTA-free Protease Inhibitor Cocktail, Roche, Basel, Switzerland; Catalogue No. 1187358001). After centrifugation, the supernatant was stored at −80° C. until it was used for the GLP-1 measurement. The amount of GLP-1 in the medium was measured by ELISA method using GLP-1 Active Form Assay Kit (manufactured by Immuno-Biological Laboratories Co, Ltd., Gunma, Japan). […] As a positive control for measuring cytotoxicity, the cells added with 0.1% Triton X-100/PBS (−) (Phosphate Buffered Saline) were used. The LDH activity in the cell culture supernatant of the positive control was set as 100% and the ratio to the positive control (LDH activity in the cell culture supernatant of sample/LDH activity in the positive control) was calculated as the cytotoxicity rate. Herein, it was judged that a sample had no cytotoxicity when the cytotoxicity rate was within ±2% compared to that of “control (cells cultured with 20 mM HEPES-HBSS without a test sample, instead of 20 mM HEPES-HBSS containing a test sample; shown as “No Addition” in Table 1)”.
The amount of GLP-1 secretion was determined as a relative value to the average value of the GLP-1 secretion amount obtained for a control (cells cultured with 20 mM HEPES-HBSS without a test sample instead of 20 mM HEPES-HBSS containing a test sample; shown as “No Addition” in Table 1). In Table 1, the GLP-1 secretion amounts when mGN and flavor components were used separately and the GLP-1 secretion amounts when mGN and flavor components were used in combination were shown. […] The synergistic effect of mGN and flavor components in promoting GLP-1 secretion was judged based on the following criteria.
Synergistic Effect: Theoretical Value<(is less than) Measured Value • Theoretical Value=([…])×100+(B/D−1)×100 • Measured Value=(C/D-1)×100
The theoretical value and the measure value were compared based on the above formula. When the measured value was higher than the theoretical value, it was judged that there was a synergistic effect, which was indicated as “O” in the table.
The presence or absence of the synergistic effect by the combination of mGN and thymol was judged based on the formula used in Experiment 1-3. When the measured value was higher than the theoretical value, it was judged that there was a synergistic effect and it was indicated as “O” in the table. Furthermore, a Tukey-Kramer test was performed. When there was a significant difference (Risk Rate p<0.05) between the GLP-1 secretion amount of the combination of mGN and thymol (C) and each of the GLP-1 secretion amount of Control (D), mGN alone (A), and thymol alone (B), it was indicated “⊚” in the below table.

[1] = Homo sapiens, NCI-H716, 2 h, Table 1, Experiment 1-3, test sample alone at 0.25 mM, Control (No Addition) = 100, 2 hours, read-out: GLP-1 secretion amount, Independent Use (relative value to Control)
[2] = Experiment 1-3, flavor component alone 0.25 mM
[3] = Table 1, Experiment 1-3, test sample alone at 0.25 mM, Control (No Addition) = 100, 2 hours
[4] = Homo sapiens, NCI-H716, 2 h, Table 4, Experiment 4, Control = 100, N=3, read-out: GLP-1 secretion amount, Independent Use (relative value to Control)
[5] = Homo sapiens, NCI-H716, 2 h, Table 4, Experiment 4, test sample alone at 0.25 mM, Control = 100, N=3, read-out: GLP-1 secretion amount, Independent Use (relative value to Control)
[6] = Homo sapiens, NCI-H716, 2 h, Table 3, Experiment 3, Control = 100, N=3, read-out: GLP-1 secretion amount, Independent Use (relative value to Control)
[7] = Homo sapiens, NCI-H716, 2 h, Table 2, Experiment 2, Control = 100, N=3, read-out: GLP-1 secretion amount, Independent Use (relative value to Control)
[8] = Homo sapiens, NCI-H716, 2 h, Table 6, Experiment 6, Control = 100, N=3, read-out: GLP-1 secretion amount, Independent Use (relative value to Control)

SMILES: C=C1C2CCC(C2)C1(C)C (centres unmarked) [Camphene, camphene]
- activity at 250 µM [1]: 135%

SMILES: CC(C)=CCCC(C)=CC=O [Citral, citral, reference compound]
- GLP-1 secretion compared to Control: approximately 2.4 times
- activity at 250 µM [1]: 246%

SMILES: CC(C)=CCCC(C)CC=O (centres unmarked) [Citronellal, citronellal, reference compound]
- activity at 250 µM [1]: 113%

SMILES: CNc1ccccc1C(=O)OC [Methyl N-methyl anthranilate, methyl N-methyl anthranilate]
- GLP-1 secretion promoting effect when used alone (in words) [2]: no GLP-1 secretion promoting effect
- GLP-1 secretion amount, Independent Use (relative value to Control) [3]: 73

SMILES: COC(=O)c1ccccc1N [Methyl anthranilate, methyl anthranilate]
- GLP-1 secretion promoting effect when used alone (in words) [2]: no GLP-1 secretion promoting effect
- activity at 250 µM (Homo sapiens, NCI-H716, 2 h, read-out: GLP-1 secretion amount, Independent Use (relative value to Control)): 73%

SMILES: C=C(C)[C@@H]1CCC2=CC(=O)C[C@@H](C)[C@]2(C)C1 [Nootkatone, nootkatone]
- GLP-1 secretion when used alone (in words) (Experiment 4, alone, concentrations of Table 4): promoted in a nootkatone concentration-dependent manner
- activity at 250 µM [1]: 457%
- activity at 12.5 µM (Homo sapiens, NCI-H716, 2 h, Table 4, Experiment 4, test sample alone at 0.0125 mM, Control = 100, N=3, read-out: GLP-1 secretion amount, Independent Use (relative value to Control)): 70%
- activity at 37.5 µM (Homo sapiens, NCI-H716, 2 h, Table 4, Experiment 4, test sample alone at 0.0375 mM, Control = 100, N=3, read-out: GLP-1 secretion amount, Independent Use (relative value to Control)): 111%
- activity at 125 µM [4]: 350%
- activity at 250 µM [5]: 464%

SMILES: C=C1CCC2(C(C)C)CC12 (centres unmarked) [Sabinene, sabinene]
- GLP-1 secretion promoting effect when used alone (in words) [2]: no GLP-1 secretion promoting effect
- activity at 250 µM [1]: 101%

SMILES: Cc1ccc(C(C)C)c(O)c1 [Thymol, thymol]
- GLP-1 secretion promoting effect when used alone (in words) [2]: no GLP-1 secretion promoting effect
- GLP-1 secretion-promoting effect when used alone (in words) (Experiment 2, alone at a concentration of 0.25 mM): no GLP-1 secretion-promoting effect was observed
- GLP-1 secretion promoting effect when used alone (in words) (Experiment 3, alone, 0.0067 mM to 0.125 mM): no GLP-1 secretion promoting effect
- activity at 250 µM [1]: 82%
- activity at 6.7 µM (Homo sapiens, NCI-H716, 2 h, Table 3, Experiment 3, test sample alone at 0.0067 mM, Control = 100, N=3, read-out: GLP-1 secretion amount, Independent Use (relative value to Control)): 34%
- activity at 25 µM [6]: 61%
- activity at 125 µM [6]: 65%

SMILES: C=C(C)[C@@H]1CCC2=CCC[C@@H](C)[C@]2(C)C1 [Valencene, valencene]
- GLP-1 secretion amount, Independent Use (relative value to Control) [3]: 121

SMILES: CC1O[C@@H](OC2[C@H](Oc3cc(O)c4c(c3)OC(c3ccc(O)cc3)CC4=O)OC(CO)[C@@H](O)[C@H]2O[C@H]2OC(CO)[C@@H](O)[C@@H](O)C2O)C(O)[C@@H](O)[C@H]1O (stereo partly drawn) [mGN, 3″-α-monoglucosyl naringin]
- GLP-1 secretion compared to Control: approximately 1.6 times
- GLP-1 secretion when used alone (in words) (Experiment 2, alone, 0.025 mM to 150 mM): promoted to some extent in a mGN concentration-dependent manner
- activity at 2500 µM (Homo sapiens, NCI-H716, 2 h, Table 1, Experiment 1-3, Control (No Addition) = 100, 2 hours, read-out: GLP-1 secretion amount, Independent Use (relative value to Control)): 164%
- activity at 25 µM [7]: 45%
- activity at 250 µM (Homo sapiens, NCI-H716, 2 h, Table 2, Experiment 2, test sample alone at 0.25 mM, Control = 100, N=3, read-out: GLP-1 secretion amount, Independent Use (relative value to Control)): 63%
- activity at 2500 µM [7]: 121%
- activity at 25000 µM [7]: 427%
- activity at 25000 µM [6]: 521%
- activity at 25 µM [4]: 39%
- activity at 250 µM [5]: 63%
- activity at 2500 µM [4]: 85%
- activity at 12500 µM (Homo sapiens, NCI-H716, 2 h, Table 4, Experiment 4, test sample alone at 12.5 mM, Control = 100, N=3, read-out: GLP-1 secretion amount, Independent Use (relative value to Control)): 502%
- activity at 25 µM (Homo sapiens, NCI-H716, 2 h, Table 5, Experiment 5, Control = 100, N=3, read-out: GLP-1 secretion amount, Independent Use (relative value to Control)): 39%
- activity at 25 µM [8]: 53%
- activity at 25000 µM [8]: 457%

SMILES: CC1=CCC2CC1C2(C)C (stereo not drawn) [α-Pinene, α-pinene]
- activity at 250 µM [1]: 136%

SMILES: C=C1CC/C=C(\C)CC[C@@H]2[C@@H]1CC2(C)C [β-Caryophyllene, β-caryophyllene]
- GLP-1 secretion amount, Independent Use (relative value to Control) [3]: 111

SMILES: CC(=O)/C=C/C1=C(C)CCCC1(C)C [β-Ionone, β-ionone]
- GLP-1 secretion amount, Independent Use (relative value to Control) [3]: 157

SMILES: C=C1CCC2CC1C2(C)C (stereo not drawn) [β-Pinene, β-pinene]
- GLP-1 secretion promoting effect when used alone (in words) [2]: no GLP-1 secretion promoting effect
- activity at 250 µM [1]: 100%
